The values that follow come from patent US20100256214A1, “EPH RECEPTOR LIGANDS AND METHODS OF USE” (Burnham Institute for Medical Research, priority 2009, published 2010).

Assay [1] concerns the target EphA4 (Mus musculus, UniProt Q03137). Description: EphA4 tyrosine phosphorylation in HT22 neuronal cells. Format: cell-based. Also noted: tyrosine phosphorylation of endogenous EphA4 in HT22 neuronal cells stimulated with ephrin-A5 Fc; endogenous in cells; host or cells: HT22 mouse hippocampal neuronal cells. The conditions noted are these: for ephrin-induced EphA4 tyrosine phosphorylation: HT22 cells stimulated with ephrin-A5 Fc; for EphA4 phosphorylation: cells stimulated with ephrin-A4. On the procedure:
FIGS. 6A-6F. A. HT22 neuronal cells pretreated with the indicated concentrations of compounds 1 or 2 for 15 min were stimulated with 0.5 μg/mL ephrin-A5 Fc (+) or Fc as a control (−) for 20 min in the continued presence of the compounds. EphA4 immunoprecipitates were probed with anti-phosphotyrosine antibody (PTyr) and reprobed for EphA4. C indicates immunoprecipitations performed with control antibodies from non-immunized rabbits. […] Error bars represent the standard error from 4 experiments for compound 1 and 3 experiments for compound 2. […] C. COS7 cells pretreated with the indicated concentrations of compounds 1 or 2 for 15 min were stimulated with 0.1 μg/mL ephrin-A1 Fc or Fc as a control in the continued presence of the compounds. EphA2 immunoprecipitates were probed with anti-phosphotyrosine antibody (PTyr) and reprobed for EphA2. C indicates immunoprecipitations performed with control antibodies. […] Error bars represent the standard error from 2 experiments. Statistical analyses were performed as in (B). HUVE cells were left unstimulated or stimulated with TNFα for 2 hours in the presence of 400 μM compound 1. Duplicate untreated samples are shown. C indicates immunoprecipitations performed with control antibodies. EphA2 immunoprecipitates were probed with anti-phosphotyrosine antibody (PTyr) and reprobed for EphA2. Levels of EphA2 phosphorylation quantified from immunoblots and normalized to the amount of immunoprecipitated EphA2 were also performed. […] The same protocol described in (C) was used, except that COS7 cells were stimulated with 0.5 μg/mL of ephrin-B2 Fc and the EphB2 receptor was immunoprecipitated. F. COS7 cells pretreated with the indicated concentrations of compounds 1 or 2 were stimulated with EGF (+) or left unstimulated (−). Lysates were probed with anti-phosphotyrosine antibody (PTyr) and reprobed for the EGF receptor.
Measurement of Receptor Tyrosine Phosphorylation in Cells—HT22 neuronal cells, which endogenously express EphA4, are derived from immortalized mouse hippocampal neurons (Li et al. (1997) Neuron 19(2), 453-463). COST cells, which endogenously express EphA2, EphB2 and the EGF receptor (EGFR), were obtained from ATCC. Both cell lines were grown in Dulbecco's Modified Eagle's Medium (DMEM) (Mediatech, Inc, Herndon, Va.) with 10% fetal bovine serum (FBS) (Hyclone, Logan, Utah) and Pen/Strep. For EphA4 immunoprecipitations, HT22 cells were serum-starved overnight in 0.5% FBS in DMEM and incubated for 15 min with the compounds or DMSO as a control. The cells were then stimulated with 0.5 μg/mL ephrin-A5 Fc, ephrin-A4 Fc or Fc for 20 min in the continued presence of the compounds. […] The protein concentration was calculated using the BCA protein assay kit (Pierce Biotecnology, Rockford, Ill.). […]

For assay [2], the target named is T1, EphA2 (Homo sapiens, UniProt P29317). Description: ELISA, EphA2-ephrin-A5 binding. The conditions noted are these: assuming competitive inhibition; read-out: Ki for inhibition of EphA2-ephrin-A5 binding (Cheng-Prusoff). On the procedure:
ELISA Assays and K, Determination—Protein A-coated wells (Pierce Biotecnology, Rockford, Ill.) were used to immobilize ephrin Fc fusion proteins (R&D Systems, Minneapolis, Minn.). Compounds at different concentrations were incubated with EphA4 AP (Cheng and Flanagan, (1994) Cell 79(1), 157-168) or EphA2 AP (Koolpe et al. (2002) J Biol Chem 277(49), 46974-46979) for 3 hours. Alternatively, Eph receptor Fc fusion proteins were immobilized on protein A-coated wells and ephrin-A5 AP (Menzel et al. (2001) Developmental Biology 230(1), 74-88) or ephrin-B2 AP (GeneHunter, Nashville, Tenn.) were added with the compounds. The amount of bound AP-fusion protein was quantified using pNPP as the substrate. […]
To calculate the inhibition constant (KO values, the binding of ephrin-A5 AP to EphA4 Fc immobilized on protein A-coated wells was measured in the absence and in the presence of the compounds at different concentrations. Each data set was fitted to the Michaelis-Menten equation: B=Bmax [S]/(KD+[S]), where [S] is the concentration of ephrin AP fusion protein and KD is the dissociation constant observed in the absence or in the presence of the compound, using non linear regression and the program GraphPad (Prism). To evaluate whether the inhibition is competitive, noncompetitive or uncompetitive the KD and Bmax values were determined at different compound concentrations. […]
Target sequence in this assay (P29317 25-534 limits assumed, species assumed): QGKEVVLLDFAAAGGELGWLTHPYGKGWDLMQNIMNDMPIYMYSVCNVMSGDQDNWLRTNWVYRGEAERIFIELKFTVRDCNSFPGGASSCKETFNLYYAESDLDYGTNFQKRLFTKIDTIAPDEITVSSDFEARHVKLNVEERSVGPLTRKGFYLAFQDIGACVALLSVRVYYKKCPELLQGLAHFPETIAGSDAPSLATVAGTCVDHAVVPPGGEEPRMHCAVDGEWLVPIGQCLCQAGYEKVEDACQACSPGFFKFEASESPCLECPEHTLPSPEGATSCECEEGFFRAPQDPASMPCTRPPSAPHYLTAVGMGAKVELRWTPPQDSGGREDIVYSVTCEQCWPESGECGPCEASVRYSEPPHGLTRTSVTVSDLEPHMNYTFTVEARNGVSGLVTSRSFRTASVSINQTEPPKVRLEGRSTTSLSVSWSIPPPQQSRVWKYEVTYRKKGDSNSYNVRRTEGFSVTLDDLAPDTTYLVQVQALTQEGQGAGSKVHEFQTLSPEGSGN

For assay [3], the system named is EGF receptor. Nature of the assay: EGF receptor phosphorylation in COS7 cells. The assay is classed as cell-based. The conditions noted are these: COS7 cells stimulated with EGF.
Assay [4] addresses T1, EphA2. Description: EphA2 tyrosine phosphorylation in HUVE endothelial cells treated with TNFα. The assay is classed as cell-based. Also noted: endogenous in cells. On the procedure: FIGS. 6A-6F. A. HT22 neuronal cells pretreated with the indicated concentrations of compounds 1 or 2 for 15 min were stimulated with 0.5 μg/mL ephrin-A5 Fc (+) or Fc as a control (−) for 20 min in the continued presence of the compounds. EphA4 immunoprecipitates were probed with anti-phosphotyrosine antibody (PTyr) and reprobed for EphA4. C indicates immunoprecipitations performed with control antibodies from non-immunized rabbits. […] Error bars represent the standard error from 4 experiments for compound 1 and 3 experiments for compound 2. […] C. COS7 cells pretreated with the indicated concentrations of compounds 1 or 2 for 15 min were stimulated with 0.1 μg/mL ephrin-A1 Fc or Fc as a control in the continued presence of the compounds. EphA2 immunoprecipitates were probed with anti-phosphotyrosine antibody (PTyr) and reprobed for EphA2. C indicates immunoprecipitations performed with control antibodies. […] Levels of EphA2 phosphorylation quantified from immunoblots and normalized to the amount of immunoprecipitated EphA2 were also performed. […]
Measurement of Receptor Tyrosine Phosphorylation in Cells—HT22 neuronal cells, which endogenously express EphA4, are derived from immortalized mouse hippocampal neurons (Li et al. (1997) Neuron 19(2), 453-463). […] The protein concentration was calculated using the BCA protein assay kit (Pierce Biotecnology, Rockford, Ill.). […]
Target sequence in this assay (P29317 24-976): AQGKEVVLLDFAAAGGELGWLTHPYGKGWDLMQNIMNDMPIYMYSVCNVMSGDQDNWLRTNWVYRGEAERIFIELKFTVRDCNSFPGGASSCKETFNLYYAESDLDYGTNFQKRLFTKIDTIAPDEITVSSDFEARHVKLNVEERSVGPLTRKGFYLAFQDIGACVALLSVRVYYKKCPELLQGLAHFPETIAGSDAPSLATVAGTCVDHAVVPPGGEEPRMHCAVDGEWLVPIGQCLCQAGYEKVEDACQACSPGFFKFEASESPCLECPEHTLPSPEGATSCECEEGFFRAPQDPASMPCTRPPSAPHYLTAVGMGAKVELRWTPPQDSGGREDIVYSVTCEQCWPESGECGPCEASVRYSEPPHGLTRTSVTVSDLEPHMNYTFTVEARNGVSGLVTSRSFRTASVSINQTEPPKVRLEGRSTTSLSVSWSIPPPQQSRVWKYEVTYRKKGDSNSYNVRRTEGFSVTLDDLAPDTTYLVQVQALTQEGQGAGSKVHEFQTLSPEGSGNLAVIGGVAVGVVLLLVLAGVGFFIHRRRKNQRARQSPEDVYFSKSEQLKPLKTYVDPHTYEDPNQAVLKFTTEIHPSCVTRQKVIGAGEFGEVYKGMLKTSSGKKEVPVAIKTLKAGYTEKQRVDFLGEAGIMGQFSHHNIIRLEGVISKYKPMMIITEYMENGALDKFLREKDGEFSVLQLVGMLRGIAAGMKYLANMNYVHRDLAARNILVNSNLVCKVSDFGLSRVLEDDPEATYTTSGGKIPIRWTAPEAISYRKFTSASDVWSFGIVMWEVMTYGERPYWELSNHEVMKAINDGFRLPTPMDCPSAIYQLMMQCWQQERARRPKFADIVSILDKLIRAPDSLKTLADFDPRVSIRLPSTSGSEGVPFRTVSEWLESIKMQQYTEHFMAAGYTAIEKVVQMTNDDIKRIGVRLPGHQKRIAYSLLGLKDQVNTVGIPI

Sequence of EphA4 (Q03137 20-986): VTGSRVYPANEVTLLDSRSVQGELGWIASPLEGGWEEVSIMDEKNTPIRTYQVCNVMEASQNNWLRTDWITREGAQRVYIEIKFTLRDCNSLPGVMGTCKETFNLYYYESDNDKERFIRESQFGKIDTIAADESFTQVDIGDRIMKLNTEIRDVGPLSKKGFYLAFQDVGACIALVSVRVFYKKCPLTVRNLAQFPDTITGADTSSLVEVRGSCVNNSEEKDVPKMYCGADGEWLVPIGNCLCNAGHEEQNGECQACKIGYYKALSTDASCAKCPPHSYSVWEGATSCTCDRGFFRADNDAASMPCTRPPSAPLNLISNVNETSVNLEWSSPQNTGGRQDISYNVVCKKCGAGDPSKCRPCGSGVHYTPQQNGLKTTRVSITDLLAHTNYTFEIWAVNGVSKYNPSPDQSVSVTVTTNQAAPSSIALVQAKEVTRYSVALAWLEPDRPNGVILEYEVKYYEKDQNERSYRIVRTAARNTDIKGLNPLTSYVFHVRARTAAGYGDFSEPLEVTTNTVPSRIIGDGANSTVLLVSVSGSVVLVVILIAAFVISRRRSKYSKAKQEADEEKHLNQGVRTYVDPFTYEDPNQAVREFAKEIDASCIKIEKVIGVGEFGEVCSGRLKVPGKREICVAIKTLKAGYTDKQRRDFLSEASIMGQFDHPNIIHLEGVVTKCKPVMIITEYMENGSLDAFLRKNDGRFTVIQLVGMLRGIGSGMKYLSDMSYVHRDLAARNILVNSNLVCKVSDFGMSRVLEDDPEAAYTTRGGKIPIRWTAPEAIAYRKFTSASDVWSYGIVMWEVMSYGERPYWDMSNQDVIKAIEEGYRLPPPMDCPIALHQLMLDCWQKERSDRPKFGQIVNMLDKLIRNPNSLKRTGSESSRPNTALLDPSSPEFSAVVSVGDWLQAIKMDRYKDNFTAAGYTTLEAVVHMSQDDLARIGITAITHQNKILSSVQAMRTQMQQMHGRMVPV

As to `Cc1ccc(C)n1-c1ccc(C(=O)O)c(O)c1` [compound 1, 4-(2,5-dimethyl-pyrrol-1-yl)-2-hydroxy-benzoic acid], in assay [1], the “ephrin-induced EphA4 tyrosine phosphorylation” value is “blocked” and the EphA4 phosphorylation result is “did not inhibit”. The Ki in assay [2] was 11 to 14 µM. Also, the “phosphorylation of the EGF receptor” value in assay [3] is “did not inhibit”. The “tyrosine phosphorylation of endogenous EphA2” value in assay [4] is recorded as “inhibited”.
Regarding `Cc1ccc(C)n1-c1ccc(O)c(C(=O)O)c1` [compound 2, 5-(2,5 dimethyl-pyrrol-1-yl)-2-hydroxy-benzoic acid], in assay [1], the “ephrin-induced EphA4 tyrosine phosphorylation” value is reported as “blocked” and the EphA4 phosphorylation result was “did not inhibit”. In assay [2], the Ki lay in the range of 10 to 13 µM. For the same compound, the “phosphorylation of the EGF receptor” value in assay [3] was “did not inhibit”. Further, the “tyrosine phosphorylation of endogenous EphA2” value in assay [4] was “inhibited”.
